± gives the expanded uncertainty stated by the source.

The record followed here is the NIST ThermoML archive (doi:10.1016/j.jct.2005.02.003).

The conditions of this data set: Crystal; Adiabatic calorimetry.

Turning to `CC(C)COC(C)(C)C` [isobutyl tert-butyl ether], the Triple point temperature is 162.33 ± 0.05 K.
